Measurements taken from publication PMC8635125, “A Novel Dibenzoxazepine Attenuates Intracellular Salmonella Typhimurium Oxidative Stress Resistance” (Microbiology Spectrum, 2021).

Legend:
[1] = HCA cytotoxicity toward infected macrophages (nuclear staining); assay type: cell-based, murine; conditions: mouse, RAW264.7 macrophages infected with S. Typhimurium, infected RAW264.7 cells, read-out: 50% cytotoxic concentration (CC50) toward macrophages
Procedure: (§1) Overnight cultures of RFP-expressing S. Typhimurium were prepared for infection by 1:100 dilution in fresh LB broth and incubation for 2 h at 37°C. The bacteria were then collected by centrifugation at 6,000 × g for 3 min and suspended in phosphate-buffered saline (PBS; pH 7.2) to an optical density of 0.6 at 600 nm, which was equivalent to 5 × 10^8 CFU/mL. RAW264.7 macrophages were seeded in 96-well black clear-bottom plates (Greiner) and incubated for 20 h followed by infection with RFP-expressing S. Typhimurium at a multiplicity of infection (MOI) of 50 for 1 h. […] Afterward, the cells were washed and stained with CellTracker Green (Thermo Fisher Scientific) for 30 min in serum-free DMEM followed by fixation in 3.7% formaldehyde (Sigma-Aldrich) for 20 min and stained with 0.2 mg/L DAPI (4′,6-diamidino-2-phenylindole; AAT Bioquest) for 30 min. Images of individual wells were captured and analyzed using a high-content imaging system (ImageXpress Micro 4; Molecular Devices). The CC50 and 50% effective concentration (EC50) values against intracellular bacteria of each compound were determined using CalcuSyn software (Biosoft).

[2] = test system: ciprofloxacin-resistant S. Typhimurium strains SA10 and SB10 in RAW264.7 cells; assay: HCA of intracellular ciprofloxacin-resistant strains in macrophages; assay type: cell-based, Salmonella enterica serovar Typhimurium; conditions: SA10 and SB10, gentamicin, 24 h
Procedure: as §1

S. Typhimurium 0911R = assay: microbe, parasite or virus in culture; assay type: cell-based, Salmonella Typhimurium; conditions: Salmonella enterica, TYPHIMURIUM
Procedure: The minimal inhibitory concentration (MIC) of each test compound against the individual bacterial strains was determined by the broth microdilution method following the guidelines recommended by the Clinical and Laboratory Standards Institute (CLSI) ([27]).

S. Typhimurium = assay: Bacterial growth assay (OD600); assay type: cell-based, Salmonella enterica serovar Typhimurium; conditions: for concentration inhibiting bacterial growth (OD600): 24 h
Procedure: Overnight-grown S. […] The plate was incubated at 37°C, and bacterial growth was monitored by measuring the absorbance at 600 nm with a VersaMax Microplate reader (Molecular Devices) at designated times for 24 h.

Compound: Clc1ccc2c(c1)C(NCCN1CCNCC1)=Nc1ccccc1O2 [SW14]
- CC50 at 24 h [1]: 23.5 µM
- intracellular proliferation of ciprofloxacin-resistant isolates [2]: highly sensitive
- MIC (S. Typhimurium 0911R): > 64 µg/mL
- concentration inhibiting bacterial growth (OD600) (S. Typhimurium; Luria-Bertani (LB) medium): > 64 µM
- growth of Salmonella in LPM medium (S. Typhimurium; acidic low-phosphate, low-magnesium (LPM) medium): unable to detect any significant change
- concentration inhibiting bacterial growth in broth (S. Typhimurium; broth): > 64 µM
- concentration inhibiting bacterial growth (OD600) (S. Typhimurium; cell culture medium (DMEM + 10% FBS)): > 64 µM
